≈ marks a conversion by molar mass, not a printed value.
Legend:
[1] = test system: Mycobacterium tuberculosis; assay: Antitubercular activity against multi drug resistant Mycobacterium tuberculosis isolate 1 assessed as growth inhibition after 4 weeks; format: functional; conditions: isolate 1, 672 h
[2] = test system: Mycobacterium tuberculosis; assay: Antitubercular activity against multi drug resistant Mycobacterium tuberculosis isolate 2 assessed as growth inhibition after 4 weeks; format: functional; conditions: isolate 2, 672 h

| SMILES | MIC [1] | MIC [2] |
| --- | --- | --- |
| C=CCCOc1nc2ccccc2cc1C(c1cc2ccccc2nc1OCCC=C)C(O)(CCN(C)C)c1ccc(Br)cc1 (stereo not drawn) | 3.12 µM (≈ 2.08 µg/mL) | 3.12 µM (≈ 2.08 µg/mL) |
| COc1nc2ccccc2cc1C(c1cc2ccccc2nc1OC)C(O)(CCN(C)C)c1cccc(Br)c1 (stereo not drawn) | 3.12 µM (≈ 1.83 µg/mL) | 3.12 µM (≈ 1.83 µg/mL) |
| COc1nc2ccccc2cc1C(c1cc2ccccc2nc1OC)C(O)(CCN(C)C)c1ccccc1 (stereo not drawn) | 3.12 µM (≈ 1.58 µg/mL) | 3.12 µM (≈ 1.58 µg/mL) |
| COc1nc2ccccc2cc1C(c1cc2ccccc2nc1OC)C(O)(CCN(C)C)c1ccc2ccccc2c1 (stereo not drawn) | 3.12 µM (≈ 1.74 µg/mL) | 3.12 µM (≈ 1.74 µg/mL) |
